According to patent publication US20080227710A1, “Use of Conjugates of Doxorubicin with Lactosaminated Albumin” (priority 2005, published 2008):

Test: DOXO concentrations in HCCs, heart and intestine of rats with DENA-induced HCCs
Assay type: in vivo, rat
Settings: 4 h after i.v. injection, DOXO measured as free drug, mean ± standard error
Method: HCCs were induced by diethyInitrosamine (DENA) given in the drinking water (100 mg/l) for 8 weeks. […] Compounds were injected in the dorsal vein of penis, in a volume of 10 μl/10 g body weight, under isoflurane anaesthesia. For each compound four rats were used. Four hours after the injection the animals were killed under isoflurane anaesthesia. Organs were rapidly removed and frozen and neoplastic nodules were accurately dissected from the surrounding liver. A part of each tumor nodule was frozen; the other part was fixed in 10% formalin and processed for histology. Samples of frozen organs and nodules were used for radioactivity count and determination of DOXO levels. DOXO was measured according to Bots A M, et al. (Analysis of adriamycin . . . J Chromatogr 1983; 272: 421-427), with modifications (Di Stefano G, et al. Doxorubicin coupled to lactosaminated . . . Dig Liver Dis 2003; 35: 428-433).

COc1cccc2c1C(=O)c1c(O)c3c(c(O)c1C2=O)C[C@@](O)(C(=O)CO)C[C@@H]3O[C@H]1C[C@H](N)[C@H](O)[C@H](C)O1 [DOXO, doxorubicin]
DOXO concentration, nmoles DOXO/g, Heart (heart): 4.7 ± 0.3 nmoles DOXO/g | DOXO concentration, nmoles DOXO/g, Intestine (intestine): 4.2 ± 0.6 nmoles DOXO/g | DOXO concentration, nmoles DOXO/g, MD HCCs (moderately differentiated HCCs): 3.1 ± 0.4 nmoles DOXO/g | DOXO concentration, nmoles DOXO/g, PD HCCs (poorly differentiated HCCs): 3.6 ± 0.4 nmoles DOXO/g | DOXO concentration, nmoles DOXO/g, WD HCCs (well differentiated HCCs): 3.4 ± 0.6 nmoles DOXO/g
